From ChEMBL document CHEMBL1201862, “PubChem BioAssay data set” (2004)
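Five compound concentrations were applied to cells in 96-well plates for 48 hours; endpoints were derived by simple linear interpolation of the resulting dose-response curve. At the GI50, growth is halved.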 Activity calls are given as the source filed them. No stated cut-off is given here; in the data, active = GI50 up to about 1.1 µM and inactive = higher.

Assays:
Assay in all cases: NCI tumour cell line growth inhibition, 48 h
CAKI-1 = test system: CAKI-1
HCC 2998 = test system: HCC 2998
MOLT-4 = test system: MOLT-4
PC-3 = test system: PC-3
SK-MEL-28 = test system: SK-MEL-28
IGROV-1 = test system: IGROV-1
786-0 = test system: 786-0
UO-31 = test system: UO-31
EKVX = test system: EKVX
DU-145 = test system: DU-145
M14 = test system: M14
SR = test system: SR
HCT-15 = test system: HCT-15
UACC-257 = test system: UACC-257
TK-10 = test system: TK-10
A549 = test system: A549
MCF7 = test system: MCF7
NCI-H23 = test system: NCI-H23
KM12 = test system: KM12
SK-OV-3 = test system: SK-OV-3
T47D = test system: T47D
U-251 = test system: U-251
CCRF-CEM = test system: CCRF-CEM
BT-549 = test system: BT-549
UACC-62 = test system: UACC-62
HL-60 = test system: HL-60
ACHN = test system: ACHN
SN12C = test system: SN12C
A498 = test system: A498
MDA-MB-435 = test system: MDA-MB-435
OVCAR-8 = test system: OVCAR-8
HCT-116 = test system: HCT-116
NCI-H522 = test system: NCI-H522
RXF 393 = test system: RXF 393
OVCAR-5 = test system: OVCAR-5
SW-620 = test system: SW-620
SK-MEL-2 = test system: SK-MEL-2
SNB-19 = test system: SNB-19
K562 = test system: K562
COLO 205 = test system: COLO 205
HOP-92 = test system: HOP-92
NCI-H226 = test system: NCI-H226
SNB-75 = test system: SNB-75
Hs-578T = test system: Hs-578T
NCI/ADR-RES = test system: NCI/ADR-RES
MDA-N = test system: MDA-N
SF-295 = test system: SF-295
LOX IMVI = test system: LOX IMVI
MDA-MB-231 = test system: MDA-MB-231
NCI-H460 = test system: NCI-H460
SF-268 = test system: SF-268
Malme-3M = test system: Malme-3M
SF-539 = test system: SF-539
HT-29 = test system: HT-29
SK-MEL-5 = test system: SK-MEL-5
OVCAR-3 = test system: OVCAR-3
OVCAR-4 = test system: OVCAR-4
HOP-62 = test system: HOP-62
RPMI-8226 = test system: RPMI-8226

Cc1ccc(C)c(COCCOCn2cc(N3CCOCC3)c(=O)[nH]c2=O)c1 was tested, and the GI50 (CAKI-1) was > 100 µM (inactive), the GI50 (HCC 2998) was > 100 µM (inactive) and the GI50 (MOLT-4) was > 100 µM (inactive). For the same compound, the GI50 (PC-3) was > 100 µM (inactive), the GI50 (SK-MEL-28) was > 100 µM (inactive) and the GI50 (IGROV-1) was > 100 µM (inactive). The GI50 (786-0) was > 100 µM (inactive), the GI50 (UO-31) was > 100 µM (inactive) and the GI50 (EKVX) was > 100 µM (inactive). For the same compound, the GI50 (DU-145) was > 100 µM (inactive), the GI50 (M14) was > 100 µM (inactive) and the GI50 (SR) was > 100 µM (inactive). For the same compound, the GI50 (HCT-15) was greater than 100 µM, the GI50 (UACC-257) was > 100 µM (inactive) and the GI50 (TK-10) was > 100 µM (inactive). For the same compound, the GI50 (A549) was > 100 µM (inactive), the GI50 (MCF7) was > 100 µM (inactive) and the GI50 (NCI-H23) was > 100 µM (inactive). For the same compound, the GI50 (KM12) was > 100 µM (inactive), the GI50 (SK-OV-3) was > 100 µM (inactive) and the GI50 (T47D) was > 100 µM (inactive). The GI50 (U-251) was > 100 µM (inactive), the GI50 (CCRF-CEM) was > 100 µM (inactive) and the GI50 (BT-549) was > 100 µM (inactive). The GI50 (UACC-62) was > 100 µM (inactive), the GI50 (HL-60) was 3.63 µM (inactive) and the GI50 (ACHN) was > 100 µM (inactive). The GI50 (SN12C) was > 100 µM (inactive), the GI50 (A498) was > 100 µM (inactive) and the GI50 (MDA-MB-435) was > 100 µM (inactive). The GI50 (OVCAR-8) was > 100 µM (inactive), the GI50 (HCT-116) was > 100 µM (inactive) and the GI50 (NCI-H522) was > 100 µM (inactive). The GI50 (RXF 393) was > 100 µM (inactive), the GI50 (OVCAR-5) was > 100 µM (inactive) and the GI50 (SW-620) was > 100 µM (inactive). The GI50 (SK-MEL-2) was > 100 µM (inactive), the GI50 (SNB-19) was > 100 µM (inactive) and the GI50 (K562) was > 100 µM (inactive). The GI50 (COLO 205) was > 100 µM (inactive), the GI50 (HOP-92) was > 100 µM (inactive) and the GI50 (NCI-H226) was > 100 µM (inactive). The GI50 (SNB-75) was > 100 µM (inactive), the GI50 (Hs-578T) was 54.6 µM (inactive) and the GI50 (NCI/ADR-RES) was > 100 µM (inactive). For the same compound, the GI50 (MDA-N) was > 100 µM (inactive), the GI50 (SF-295) was > 100 µM (inactive) and the GI50 (LOX IMVI) was > 100 µM (inactive). The GI50 (MDA-MB-231) was > 100 µM (inactive), the GI50 (NCI-H460) was > 100 µM (inactive) and the GI50 (SF-268) was > 100 µM (inactive). For the same compound, the GI50 (Malme-3M) was > 100 µM (inactive) and the GI50 (SF-539) was > 100 µM (inactive).

For COC(=O)C1=C(OC(=O)c2ccccc2)C(C(=O)OC)[C@@]2(O)[C@@H](C(=O)OC)[C@H](C)C[C@@H]1[C@@H]2C(=O)OC (stereo partly specified), the GI50 (HT-29) was 34.6 µM (inactive), the GI50 (CAKI-1) was 42.2 µM (inactive) and the GI50 (HCC 2998) was 25 µM (inactive). For the same compound, the GI50 (MOLT-4) was 46.1 µM (inactive), the GI50 (PC-3) was 37.2 µM (inactive) and the GI50 (SK-MEL-28) was 27.2 µM (inactive). The GI50 (SK-MEL-5) was 31.9 µM (inactive), the GI50 (IGROV-1) was 33.8 µM (inactive) and the GI50 (786-0) was 38.1 µM (inactive). For the same compound, the GI50 (UO-31) was 29.5 µM (inactive), the GI50 (EKVX) was 31.6 µM (inactive) and the GI50 (DU-145) was 59.3 µM (inactive). The GI50 (M14) was 28.3 µM (inactive), the GI50 (SR) was 21.5 µM (inactive) and the GI50 (HCT-15) was 58.1 µM. For the same compound, the GI50 (UACC-257) was 33.3 µM (inactive), the GI50 (TK-10) was 75.9 µM (inactive) and the GI50 (A549) was 19.5 µM (inactive). For the same compound, the GI50 (MCF7) was 29 µM (inactive), the GI50 (NCI-H23) was 30.8 µM (inactive) and the GI50 (KM12) was 28.4 µM (inactive). For the same compound, the GI50 (OVCAR-3) was 46.2 µM (inactive), the GI50 (SK-OV-3) was 29.5 µM (inactive) and the GI50 (T47D) was 28 µM (inactive). The GI50 (U-251) was 35.4 µM (inactive), the GI50 (CCRF-CEM) was 8.89 µM (inactive) and the GI50 (BT-549) was 23.7 µM (inactive). For the same compound, the GI50 (UACC-62) was 39.7 µM (inactive), the GI50 (HL-60) was 20.1 µM (inactive) and the GI50 (ACHN) was 31.6 µM (inactive). The GI50 (SN12C) was 41.8 µM (inactive), the GI50 (A498) was 26.4 µM (inactive) and the GI50 (OVCAR-4) was 31.6 µM (inactive). For the same compound, the GI50 (MDA-MB-435) was 25.3 µM (inactive), the GI50 (OVCAR-8) was 26.4 µM (inactive) and the GI50 (HOP-62) was 33.1 µM (inactive). The GI50 (HCT-116) was 36 µM (inactive), the GI50 (NCI-H522) was 13.2 µM (inactive) and the GI50 (RXF 393) was 14.4 µM (inactive). For the same compound, the GI50 (OVCAR-5) was 47.2 µM (inactive), the GI50 (SW-620) was 28.6 µM (inactive) and the GI50 (SK-MEL-2) was 58.2 µM (inactive). For the same compound, the GI50 (SNB-19) was 74.6 µM (inactive), the GI50 (COLO 205) was 17.6 µM (inactive) and the GI50 (NCI-H226) was 45.5 µM (inactive). For the same compound, the GI50 (SNB-75) was 22.9 µM (inactive), the GI50 (Hs-578T) was 34.5 µM (inactive) and the GI50 (RPMI-8226) was 19 µM (inactive). The GI50 (NCI/ADR-RES) was 19 µM (inactive), the GI50 (MDA-N) was 21.4 µM (inactive) and the GI50 (SF-295) was 35.1 µM (inactive). For the same compound, the GI50 (LOX IMVI) was 32.1 µM (inactive), the GI50 (MDA-MB-231) was 37.7 µM (inactive) and the GI50 (NCI-H460) was 25.3 µM (inactive). For the same compound, the GI50 (SF-268) was 47.8 µM (inactive), the GI50 (Malme-3M) was 26.9 µM (inactive) and the GI50 (SF-539) was 14.5 µM (inactive).

With Oc1ccccc1CNCc1nc2ccccc2[nH]1 the GI50 (HT-29) was 0.495 µM (active), the GI50 (CAKI-1) was 69.3 µM (inactive) and the GI50 (HCC 2998) was > 100 µM (inactive). The GI50 (MOLT-4) was 65.5 µM (inactive), the GI50 (PC-3) was 71.9 µM (inactive) and the GI50 (SK-MEL-28) was > 100 µM (inactive). For the same compound, the GI50 (SK-MEL-5) was 22.4 µM (inactive), the GI50 (IGROV-1) was > 100 µM (inactive) and the GI50 (786-0) was 26.1 µM (inactive). The GI50 (UO-31) was 11.2 µM (inactive), the GI50 (EKVX) was 36.1 µM (inactive) and the GI50 (DU-145) was > 100 µM (inactive). For the same compound, the GI50 (M14) was 86.3 µM (inactive), the GI50 (SR) was 50 µM (inactive) and the GI50 (HCT-15) was 3.01 µM. For the same compound, the GI50 (UACC-257) was > 100 µM (inactive), the GI50 (TK-10) was 83 µM (inactive) and the GI50 (A549) was > 100 µM (inactive). The GI50 (MCF7) was > 100 µM (inactive), the GI50 (NCI-H23) was > 100 µM (inactive) and the GI50 (KM12) was 89.5 µM (inactive). For the same compound, the GI50 (OVCAR-3) was 33.7 µM (inactive), the GI50 (T47D) was > 100 µM (inactive) and the GI50 (U-251) was 41.5 µM (inactive). The GI50 (CCRF-CEM) was 29 µM (inactive), the GI50 (BT-549) was 75.7 µM (inactive) and the GI50 (UACC-62) was 78.7 µM (inactive). For the same compound, the GI50 (HL-60) was 40.9 µM (inactive), the GI50 (ACHN) was 12.9 µM (inactive) and the GI50 (SN12C) was > 100 µM (inactive). The GI50 (A498) was > 100 µM (inactive), the GI50 (OVCAR-4) was > 100 µM (inactive) and the GI50 (MDA-MB-435) was > 100 µM (inactive). The GI50 (OVCAR-8) was 29 µM (inactive), the GI50 (HOP-62) was 69 µM (inactive) and the GI50 (HCT-116) was 37 µM (inactive). For the same compound, the GI50 (NCI-H522) was > 100 µM (inactive), the GI50 (RXF 393) was 75 µM (inactive) and the GI50 (OVCAR-5) was > 100 µM (inactive). For the same compound, the GI50 (SW-620) was 55.3 µM (inactive), the GI50 (SK-MEL-2) was > 100 µM (inactive) and the GI50 (SNB-19) was > 100 µM (inactive). The GI50 (K562) was 51.2 µM (inactive), the GI50 (COLO 205) was 29.7 µM (inactive) and the GI50 (HOP-92) was 73.5 µM (inactive). The GI50 (NCI-H226) was 20.9 µM (inactive), the GI50 (SNB-75) was 57.4 µM (inactive) and the GI50 (Hs-578T) was > 100 µM (inactive). For the same compound, the GI50 (RPMI-8226) was 17.7 µM (inactive), the GI50 (NCI/ADR-RES) was 15.9 µM (inactive) and the GI50 (MDA-N) was > 100 µM (inactive). For the same compound, the GI50 (SF-295) was 45.8 µM (inactive), the GI50 (LOX IMVI) was 57 µM (inactive) and the GI50 (MDA-MB-231) was 71.9 µM (inactive). For the same compound, the GI50 (SF-268) was > 100 µM (inactive) and the GI50 (SF-539) was > 100 µM (inactive).
